# Experimental data as given in patent US4853221A, “Method for treating non-small cell lung cancer, head and neck cancers and breast cancer” (Warner-Lambert Company, priority 1987, dated 1989).
# Columns and labels:
# [1] = tested on: AML K-562; assay: Inhibition of AML K-562 cell growth in vitro; type: cell-based, human; conditions: K562, 48 h; Human AML K-562; read-out: ED50 (the source's name)
# Protocol: Logarithmically growing L1210 cells (approximately 3×10^5 cells/ml) were diluted with Fischer's medium (containing 10% horse serum) to an approximate concentration of 5×10^4 cells/ml. Cells were planted in duplicate into 15 ml culture tubes containing either no drug or various amounts of drug, and incubated for 48 hours at 37° C. before being counted.
# Trimetrexate was also evaluated in a similar manner side-by-side with methotrexate for its effect on the growth of three additional murine cell lines (L5178Y, Sarcoma-180, and Walkler-256) and three human cell lines (acute myelogenous leukemia K-562, T-cell 8402, and B-cell 8392), propagated in vitro.
# [2] = tested on: Colon 26; assay: Antitumor activity against colon adenocarcinoma 26 in mice; type: in vivo, mouse; conditions: for Life Span % ILS / Life Span % T/C: ip every 4 days, Days 1-5
# Protocol: (§1) The growth inhibition properties of 5-methyl-6-[[(3,4,5-trimethoxyphenyl)amino]methyl]-2,4-quinazolinediamine (trimetrexate) against several transplanted murine tumors were evaluated employing the antitumor screening program of the Drug Evaluation Branch of the National Cancer Institute. The protocols for these tests is described in Cancer Chemotherapy Reports, 3: 1-103 (1972). The dosing schedules are results from these tests appear in Table IV.
# (§2) Percent increase in median life span (% ILS) values appearing in the tables were calculated from the formula; 100×(median life span in days of treated mice minus median life span in days of untreated mice) divided by median life span in days of untreated control mice. That is, % ILS=[100×(T-C)]/C. % T/C and %ILS are directly interconvertible by the formula % ILS=% T/C -100.
# Colon adenocarcinoma Nos. 26 and 38. Colon adenocarcinoma 26 was propagated in Balb/cj mice for 12 to 15 days. After this time, 0.5 ml of a 1% tumor brei, prepared from several excised subcutaneously passaged tumors, was implanted intraperitoneally into CDF1 mice. Animals were treated with drug ip on Days 1 and 5 following tumor implantation. The median survival time of the treated animals was determined and expressed as a percentage of the median survival time of untreated control animals.
# (§3) In all of the mouse tumor studies described above, routine controls consisted of matching ten normal mice (with no tumors) to each tumor-bearing treatment group and injecting them with the same drug at the same dosages, schedules, days of administration, and drug route as the tumor-bearing mice. In this way, drug-induced toxicity (lethality and weight loss) could be clearly separated from the effects of the drug on the tumors.
# [3] = tested on: transplanted rodent tumors which are resistant to methotrexate; assay: Activity against methotrexate-resistant transplanted rodent tumors; conditions: in vivo
# [4] = tested on: non-small cell lung cancer; assay: Phase II trial, non-small cell lung cancer; type: in vivo, human
# Protocol: The efficacy and safety of trimetrexate in the treatment of patients with non-small cell lung cancer was evaluated in a 16-center Phase II study.
# Initially, all patients received a single 8 mg/m^2 dose of trimetrexate daily for five days of a 21-day treatment course. The dose was administered at three- or four-week intervals, with the number of treatment courses dependent upon the patient's response.
# Objective response was determined by a decrease from baseline in tumor size as set forth by the World Health Organization (WHO) response criteria. Duration of response was measured from the date of first treatment to the first date when progressive disease was documented.
# Responses were classified as complete or partial. A complete response was defined as no evidence of disease and a partial response as a 50% or greater decrease in overall tumor size without evidence of progression in 28 days.
# [5] = tested on: B-16 Melanoma; assay: Antitumor activity against B-16 melanoma in mice; type: in vivo, mouse; conditions: for Life Span % ILS / Life Span % T/C: ip daily, Days 1-9
# Protocol: as §1
# In the L1210, P388, and B-16 melanoma models, results are expressed as a percentage of median control survival time. Percentage of increase in survival time and/or cures (30 day survivors) were the parameters used to measure the effectiveness of the agents. An initial median survival value for treated over control percentage (% T/C) equal to or greater than 125% was considered indicative of activity. For confirmatory activity, two multidose assays must show % T/C values equal to or greater than 150%.
# as §2
# B16 Melanotic melanoma was implanted into BD2F1 mice in the form of a tumor "brei" prepared from a 1:10 weight/volume homogenate of the tumor in balanced salt solution.
# as §3
# [6] = tested on: Ovarian tumor; assay: Human tumor cloning system, ovarian tumors; type: cell-based; conditions: one hour, 6 specimens
# Text: (§4) The activity of trimetrexate was compared with that of methotrexate in tests with a human tumor cloning system (Latham, et al., Proc. Am. Assoc. Cancer Res., 24: 278 (1983)). The data from these tests appear in Table III were the activities are expressed as the numbers of tumors with 50% or greater reduction in tumor colony forming units after one hour exposure to the drug.
# [7] = Oral bioavailability; conditions: in vivo, administered orally
# [8] = tested on: Breast tumor; assay: Human tumor cloning system, breast tumors; type: cell-based; conditions: one hour, 10 specimens
# Text: as §4
# [9] = tested on: metastatic squamous cell cancer of the head and neck; assay: Phase II trial, metastatic squamous cell cancer of the head and neck; type: in vivo, human
# Protocol: The efficacy and safety of trimetrexate in the treatment of patients with metastatic squamous cell cancer of the head and neck was evaluated in an 11-center Phase II study.
# The primary sites of disease in the patients included head and neck (not otherwise specified), hypopharynx, floor of the mouth, oropharynx, tongue, and other parts of the mouth, nasal cavity, and larynx.
# Patients were initially treated intravenously with 8 mg/m^2 /day of trimetrexate on Days 1 through 5 of a 21-day treatment cycle. Patients were evaluated after each treatment course and were withdrawn from the study if progressive disease was documented. Patients were eligible to received six courses of treatment if stable disease was documented, or were eligible to receive continued treatment with trimetrexate if a response was documented.
# [10] = optimal dose 30 mg/kg (dose range 120-3.75)
# [11] = optimal dose 60 mg/kg (dose range 120-3.75)
# [12] = optimal dose 20 mg/kg (dose range 20-0.62)
# [13] = optimal dose 20 mg/kg (dose range 40-1.25)
structure (smiles),measurement,setting,value
"COc1cc(NCc2ccc3nc(N)nc(N)c3c2C)cc(OC)c1OC [Trimetrexate, 5-methyl-6-[[(3,4,5-trimethoxyphenyl)amino]methyl]-2,4-quinazolinediamine]",IC50,[1],10 nM
same,antitumor activity,"[2]; mouse, in vivo",good activity
same,Life Span % ILS,[2]; [10],56%
same,Life Span % T/C,[2]; [10],156%
same,Life Span % ILS,[2]; [11],115%
same,Life Span % T/C,[2]; [11],215%
same,activity against methotrexate-resistant transplanted rodent tumors,[3],activity against a variety of transplanted rodent tumors
same,patients with stable disease,[4]; 23 patients,39%
same,median time to progressive disease,[4]; 23 patients with stable disease,15.7 weeks
same,patients who only experienced progressive disease,[4]; 25 patients,42%
same,median time to progression,[4]; 25 patients who only experienced progressive disease,3.4 weeks
same,median time to progressive disease,"[4]; 55 of the 59 evaluable patients, range 1.9-75.0",7.9 weeks
same,patients with partial response,"[4]; 59 evaluable patients, initial 8 mg/m^2 daily for five days of a 21-day course",Eleven
same,response rate (partial response),"[4]; 95% confidence interval 9%-29%, 59 evaluable patients",19%
same,additional patients with 50% regression only by liver measurements,[4]; in vivo,One
same,overall median survival time,[4]; in vivo,26.4 weeks
same,patients who only experienced progressive disease (number),[4]; in vivo,25 patients
same,patients with stable disease (number),[4]; in vivo,23 patients
same,patients without progressive disease at end of reporting period,[4]; in vivo,Four
same,median time to progressive disease,"[4]; patients who responded, range 11.1-47.0",24.9 weeks
same,median duration of partial response,[4]; range 5.6-40.7,15.3 weeks
same,antitumor activity,[5]; intraperitoneally implanted,good activity
same,Life Span % ILS,[5]; [12],50%
same,Life Span % T/C,[5]; [12],150%
same,Life Span % ILS,[5]; [13],64%
same,Life Span % T/C,[5]; [13],164%
same,Number of Tumors with 50% or Greater Decrease in Tumor Colony Forming Units,[6]; trimetrexate 0.1 μg/ml,1
same,Number of Tumors with 50% or Greater Decrease in Tumor Colony Forming Units,[6]; trimetrexate 1.0 μg/ml,1
same,bioavailability,[7],~80%
same,Number of Tumors with 50% or Greater Decrease in Tumor Colony Forming Units,[8]; trimetrexate 0.1 μg/ml,0
same,Number of Tumors with 50% or Greater Decrease in Tumor Colony Forming Units,[8]; trimetrexate 1.0 μg/ml,2
same,patients with partial response,"[9]; 38 evaluable patients, initial 8 mg/m^2/day iv Days 1-5 of 21-day cycle",Ten
same,partial response rate,"[9]; 95% confidence interval 12-40%, evaluable patients",26%
same,patients with stable disease,[9]; in vivo,Nineteen
same,median duration of response,"[9]; range 4.1-59+ weeks, ten responders",12.2 weeks
same,median time to progressive disease,[9]; range 9.3-74+ weeks,19.1 weeks
